# Results taken from patent US20150209315A1 (Cumberland Pharmaceuticals, priority 2009, published 2015).
# Tested on: post-operative adult patients
# Assay: Example 1: patient self-assessment of pain, VAS at rest
# Type: in vivo, human
# Experimental: Pain was measured by the patient's self-assessment using a Visual Analog Scale (VAS) from 0-10 with 0 being no pain and 10 being intense pain. This was measured both at rest and with movement. […] […] To account for the missing pain assessments, two missing value approaches as described in the statistical analysis plan were used to impute values. To determine the difference in overall pain at differing time-points, the area under the VAS pain curve during the first 24 hours, between 6 and 24 hours and between 12 and 24 hours were analyzed.
smiles,measurement,setting,value
"CC(C)Cc1ccc(C(C)C(=O)O)cc1 (stereo not drawn) [Ibuprofen, 2-(4-isobutylphenyl) propionic acid]",VAS Score measured at Rest (median),"400 mg, EEP, 1-Hour",7.0
same,"VAS Score measured at Rest, % Reduction vs Placebo","400 mg, EEP, 1-Hour",0.0%
same,VAS Score measured at Rest (median),"400 mg, EEP, 2-Hour",6.1
same,"VAS Score measured at Rest, % Reduction vs Placebo","400 mg, EEP, 2-Hour",−3.4%
same,VAS Score measured at Rest (median),"400 mg, EEP, 3-Hour",5.0
same,"VAS Score measured at Rest, % Reduction vs Placebo","400 mg, EEP, 3-Hour",0.0%
same,VAS Score measured at Rest (median),"400 mg, EEP, 6-Hour",4.0
same,"VAS Score measured at Rest, % Reduction vs Placebo","400 mg, EEP, 6-Hour",0.0%
same,VAS Score measured at Rest (median),"400 mg, EEP, 9-Hour",3.0
same,VAS Score measured at Rest (median),"400 mg, EEP, 12-Hour",3.0
same,"VAS Score measured at Rest, % Reduction vs Placebo","400 mg, EEP, 12-Hour",0.0%
same,VAS Score measured at Rest (median),"400 mg, EEP, 15-Hour",2.0
same,"VAS Score measured at Rest, % Reduction vs Placebo","400 mg, EEP, 15-Hour",33.3%
same,VAS Score measured at Rest (median),"400 mg, EEP, 18-Hour",2.9
same,"VAS Score measured at Rest, % Reduction vs Placebo","400 mg, EEP, 18-Hour",3.3%
same,VAS Score measured at Rest (median),"400 mg, EEP, 21-Hour",2.9
same,"VAS Score measured at Rest, % Reduction vs Placebo","400 mg, EEP, 21-Hour",3.3%
same,VAS Score measured at Rest (median),"400 mg, EEP, 24-Hour",3.0
same,"VAS Score measured at Rest, % Reduction vs Placebo","400 mg, EEP, 24-Hour",0.0%
same,VAS Score measured at Rest (median),"400 mg, EEP, 27-Hour",3.0
same,"VAS Score measured at Rest, % Reduction vs Placebo","400 mg, EEP, 27-Hour",3.2%
same,VAS Score measured at Rest (median),"400 mg, EEP, 30-Hour",2.5
same,"VAS Score measured at Rest, % Reduction vs Placebo","400 mg, EEP, 30-Hour",10.7%
same,VAS Score measured at Rest (median),"400 mg, EEP, 33-Hour",2.7
same,"VAS Score measured at Rest, % Reduction vs Placebo","400 mg, EEP, 33-Hour",15.6%
same,VAS Score measured at Rest (median),"400 mg, EEP, 36-Hour",2.4
same,"VAS Score measured at Rest, % Reduction vs Placebo","400 mg, EEP, 36-Hour",7.7%
same,VAS Score measured at Rest (median),"400 mg, EEP, 39-Hour",2.1
same,"VAS Score measured at Rest, % Reduction vs Placebo","400 mg, EEP, 39-Hour",−16.7%
same,VAS Score measured at Rest (median),"400 mg, EEP, 42-Hour",2.1
same,"VAS Score measured at Rest, % Reduction vs Placebo","400 mg, EEP, 42-Hour",−5.0%
same,VAS Score measured at Rest (median),"400 mg, EEP, 45-Hour",2.4
same,"VAS Score measured at Rest, % Reduction vs Placebo","400 mg, EEP, 45-Hour",−14.3%
same,VAS Score measured at Rest (median),"400 mg, EEP, 48-Hour",1.6
same,"VAS Score measured at Rest, % Reduction vs Placebo","400 mg, EEP, 48-Hour",−6.7%
same,VAS Score measured at Rest (median),"400 mg, ITT, 1-Hour",7.0
same,"VAS Score measured at Rest, % Reduction vs Placebo","400 mg, ITT, 1-Hour",0.0%
same,VAS Score measured at Rest (median),"400 mg, ITT, 2-Hour",6.3
same,"VAS Score measured at Rest, % Reduction vs Placebo","400 mg, ITT, 2-Hour",−3.3%
same,VAS Score measured at Rest (median),"400 mg, ITT, 3-Hour",5.1
same,"VAS Score measured at Rest, % Reduction vs Placebo","400 mg, ITT, 3-Hour",−2.0%
same,VAS Score measured at Rest (median),"400 mg, ITT, 6-Hour",4.3
same,"VAS Score measured at Rest, % Reduction vs Placebo","400 mg, ITT, 6-Hour",−7.5%
same,VAS Score measured at Rest (median),"400 mg, ITT, 9-Hour",3.5
same,"VAS Score measured at Rest, % Reduction vs Placebo","400 mg, ITT, 9-Hour",12.5%
same,VAS Score measured at Rest (median),"400 mg, ITT, 12-Hour",3.1
same,"VAS Score measured at Rest, % Reduction vs Placebo","400 mg, ITT, 12-Hour",−3.3%
same,VAS Score measured at Rest (median),"400 mg, ITT, 15-Hour",2.6
same,"VAS Score measured at Rest, % Reduction vs Placebo","400 mg, ITT, 15-Hour",21.2%
same,VAS Score measured at Rest (median),"400 mg, ITT, 18-Hour",2.9
same,"VAS Score measured at Rest, % Reduction vs Placebo","400 mg, ITT, 18-Hour",3.3%
same,VAS Score measured at Rest (median),"400 mg, ITT, 21-Hour",2.8
same,"VAS Score measured at Rest, % Reduction vs Placebo","400 mg, ITT, 21-Hour",20.0%
same,VAS Score measured at Rest (median),"400 mg, ITT, 24-Hour",3.0
same,"VAS Score measured at Rest, % Reduction vs Placebo","400 mg, ITT, 24-Hour",0.0%
same,VAS Score measured at Rest (median),"400 mg, ITT, 27-Hour",3.1
same,"VAS Score measured at Rest, % Reduction vs Placebo","400 mg, ITT, 27-Hour",−3.3%
same,VAS Score measured at Rest (median),"400 mg, ITT, 30-Hour",2.4
same,"VAS Score measured at Rest, % Reduction vs Placebo","400 mg, ITT, 30-Hour",11.1%
same,VAS Score measured at Rest (median),"400 mg, ITT, 33-Hour",2.7
same,"VAS Score measured at Rest, % Reduction vs Placebo","400 mg, ITT, 33-Hour",15.6%
same,VAS Score measured at Rest (median),"400 mg, ITT, 36-Hour",2.3
same,"VAS Score measured at Rest, % Reduction vs Placebo","400 mg, ITT, 36-Hour",11.5%
same,VAS Score measured at Rest (median),"400 mg, ITT, 39-Hour",2.1
same,"VAS Score measured at Rest, % Reduction vs Placebo","400 mg, ITT, 39-Hour",−16.7%
same,VAS Score measured at Rest (median),"400 mg, ITT, 42-Hour",2.1
same,"VAS Score measured at Rest, % Reduction vs Placebo","400 mg, ITT, 42-Hour",−5.0%
same,VAS Score measured at Rest (median),"400 mg, ITT, 45-Hour",2.4
same,"VAS Score measured at Rest, % Reduction vs Placebo","400 mg, ITT, 45-Hour",−20.0%
same,VAS Score measured at Rest (median),"400 mg, ITT, 48-Hour",1.6
same,"VAS Score measured at Rest, % Reduction vs Placebo","400 mg, ITT, 48-Hour",−6.7%
same,VAS Score measured at Rest (median),"800 mg, EEP, 1-Hour",7.0
same,"VAS Score measured at Rest, % Reduction vs Placebo","800 mg, EEP, 1-Hour",0.0%
same,VAS Score measured at Rest (median),"800 mg, EEP, 2-Hour",6.0
same,"VAS Score measured at Rest, % Reduction vs Placebo","800 mg, EEP, 2-Hour",−1.7%
same,VAS Score measured at Rest (median),"800 mg, EEP, 3-Hour",5.0
same,"VAS Score measured at Rest, % Reduction vs Placebo","800 mg, EEP, 3-Hour",0.0%
same,VAS Score measured at Rest (median),"800 mg, EEP, 6-Hour",5.0
same,"VAS Score measured at Rest, % Reduction vs Placebo","800 mg, EEP, 6-Hour",−25.0%
same,VAS Score measured at Rest (median),"800 mg, EEP, 9-Hour",3.0
same,VAS Score measured at Rest (median),"800 mg, EEP, 12-Hour",3.0
same,"VAS Score measured at Rest, % Reduction vs Placebo","800 mg, EEP, 12-Hour",0.0%
same,VAS Score measured at Rest (median),"800 mg, EEP, 15-Hour",2.8
same,"VAS Score measured at Rest, % Reduction vs Placebo","800 mg, EEP, 15-Hour",6.7%
same,VAS Score measured at Rest (median),"800 mg, EEP, 18-Hour",2.0
same,"VAS Score measured at Rest, % Reduction vs Placebo","800 mg, EEP, 18-Hour",33.3%
same,VAS Score measured at Rest (median),"800 mg, EEP, 21-Hour",2.0
same,"VAS Score measured at Rest, % Reduction vs Placebo","800 mg, EEP, 21-Hour",33.3%
same,VAS Score measured at Rest (median),"800 mg, EEP, 24-Hour",2.0
same,"VAS Score measured at Rest, % Reduction vs Placebo","800 mg, EEP, 24-Hour",33.3%
same,VAS Score measured at Rest (median),"800 mg, EEP, 27-Hour",2.3
same,VAS Score measured at Rest (median),"800 mg, EEP, 30-Hour",2.4
same,"VAS Score measured at Rest, % Reduction vs Placebo","800 mg, EEP, 30-Hour",14.3%
same,VAS Score measured at Rest (median),"800 mg, EEP, 33-Hour",2.3
same,"VAS Score measured at Rest, % Reduction vs Placebo","800 mg, EEP, 33-Hour",28.1%
same,VAS Score measured at Rest (median),"800 mg, EEP, 36-Hour",2.2
same,"VAS Score measured at Rest, % Reduction vs Placebo","800 mg, EEP, 36-Hour",15.4%
same,VAS Score measured at Rest (median),"800 mg, EEP, 39-Hour",2.7
same,"VAS Score measured at Rest, % Reduction vs Placebo","800 mg, EEP, 39-Hour",−50.0%
same,VAS Score measured at Rest (median),"800 mg, EEP, 42-Hour",1.8
same,"VAS Score measured at Rest, % Reduction vs Placebo","800 mg, EEP, 42-Hour",10.0%
same,VAS Score measured at Rest (median),"800 mg, EEP, 45-Hour",2.0
same,"VAS Score measured at Rest, % Reduction vs Placebo","800 mg, EEP, 45-Hour",4.8%
same,VAS Score measured at Rest (median),"800 mg, EEP, 48-Hour",1.1
same,VAS Score measured at Rest (median),"800 mg, ITT, 1-Hour",7.0
same,"VAS Score measured at Rest, % Reduction vs Placebo","800 mg, ITT, 1-Hour",0.0%
same,VAS Score measured at Rest (median),"800 mg, ITT, 2-Hour",5.7
same,"VAS Score measured at Rest, % Reduction vs Placebo","800 mg, ITT, 2-Hour",6.6%
same,VAS Score measured at Rest (median),"800 mg, ITT, 3-Hour",5.0
same,"VAS Score measured at Rest, % Reduction vs Placebo","800 mg, ITT, 3-Hour",0.0%
same,VAS Score measured at Rest (median),"800 mg, ITT, 6-Hour",4.0
same,"VAS Score measured at Rest, % Reduction vs Placebo","800 mg, ITT, 6-Hour",0.0%
same,VAS Score measured at Rest (median),"800 mg, ITT, 9-Hour",3.0
same,VAS Score measured at Rest (median),"800 mg, ITT, 12-Hour",2.9
same,"VAS Score measured at Rest, % Reduction vs Placebo","800 mg, ITT, 12-Hour",3.3%
same,VAS Score measured at Rest (median),"800 mg, ITT, 15-Hour",2.6
same,"VAS Score measured at Rest, % Reduction vs Placebo","800 mg, ITT, 15-Hour",21.2%
same,VAS Score measured at Rest (median),"800 mg, ITT, 18-Hour",2.0
same,"VAS Score measured at Rest, % Reduction vs Placebo","800 mg, ITT, 18-Hour",33.3%
same,VAS Score measured at Rest (median),"800 mg, ITT, 21-Hour",2.0
same,"VAS Score measured at Rest, % Reduction vs Placebo","800 mg, ITT, 21-Hour",42.9%
same,VAS Score measured at Rest (median),"800 mg, ITT, 24-Hour",2.0
same,"VAS Score measured at Rest, % Reduction vs Placebo","800 mg, ITT, 24-Hour",33.3%
same,VAS Score measured at Rest (median),"800 mg, ITT, 27-Hour",2.2
same,VAS Score measured at Rest (median),"800 mg, ITT, 30-Hour",2.3
same,"VAS Score measured at Rest, % Reduction vs Placebo","800 mg, ITT, 30-Hour",14.8%
same,VAS Score measured at Rest (median),"800 mg, ITT, 33-Hour",2.3
same,"VAS Score measured at Rest, % Reduction vs Placebo","800 mg, ITT, 33-Hour",28.1%
same,VAS Score measured at Rest (median),"800 mg, ITT, 36-Hour",2.2
same,"VAS Score measured at Rest, % Reduction vs Placebo","800 mg, ITT, 36-Hour",15.4%
same,VAS Score measured at Rest (median),"800 mg, ITT, 39-Hour",2.7
same,"VAS Score measured at Rest, % Reduction vs Placebo","800 mg, ITT, 39-Hour",−50.0%
same,VAS Score measured at Rest (median),"800 mg, ITT, 42-Hour",1.9
same,"VAS Score measured at Rest, % Reduction vs Placebo","800 mg, ITT, 42-Hour",5.0%
same,VAS Score measured at Rest (median),"800 mg, ITT, 45-Hour",1.9
same,"VAS Score measured at Rest, % Reduction vs Placebo","800 mg, ITT, 45-Hour",5.0%
same,VAS Score measured at Rest (median),"800 mg, ITT, 48-Hour",1.3
same,"VAS Score measured at Rest, % Reduction vs Placebo","800 mg, ITT, 48-Hour",13.3%
